Read-outs that look alike come from different tables or passages of the source.
Legend:
[1] = target: T1, helicase domain of the Pol θ protein (Homo sapiens, UniProt O75417); experiment: Biochemical Activity Assay (ADP Glo Assay) of Pol θ inhibitor, ATPase activity
T1 construct: The helicase domain of the Pol θ protein was purified from insect protein expression system; made in house; host or cells: insect protein expression system

cells = conditions: Homo sapiens, DLD-1, 240 h
[2] = ADP-Glo assay, ATPase activity of Pol θ helicase domain, ssDNA substrate, read-out: Biochemical assay IC50
[3] = ADP-Glo, ssDNA substrate, 60 min at room temperature, read-out: Biochemical assay IC50
[4] = read-out: Cell viability assay IC50 (nM), CTG assay, CellTiter Glo, read on Day 10, cell line not given
[5] = read-out: Cell viability assay IC50 (nM), CTG on Day 10, cell line not given (method: DLD1 and DLD1^-/- cells)

T1 sequence (O75417 102-554 limits assumed): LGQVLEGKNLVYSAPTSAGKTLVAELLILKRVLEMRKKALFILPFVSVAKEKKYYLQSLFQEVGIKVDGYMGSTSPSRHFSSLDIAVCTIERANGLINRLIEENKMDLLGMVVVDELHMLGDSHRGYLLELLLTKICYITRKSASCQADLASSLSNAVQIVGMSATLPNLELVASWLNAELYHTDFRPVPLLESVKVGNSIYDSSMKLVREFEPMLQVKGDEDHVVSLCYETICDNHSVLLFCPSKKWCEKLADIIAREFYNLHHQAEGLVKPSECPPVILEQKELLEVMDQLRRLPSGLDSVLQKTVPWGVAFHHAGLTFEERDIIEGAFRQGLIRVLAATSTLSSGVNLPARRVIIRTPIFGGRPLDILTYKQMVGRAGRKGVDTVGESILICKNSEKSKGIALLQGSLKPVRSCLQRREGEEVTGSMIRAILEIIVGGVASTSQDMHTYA

Compound | IC50 [1, 2] | IC50 (cells; [4]) | further results
[2H]C1(O)CC=C(c2cc3sc(NC(=O)c4cnc(C)cc4-c4cc(Cl)ncc4OC)nc3cn2)CC1 (centres unmarked) [Example 111, 2'-chloro-N-(6-(4-hydroxycyclohex-1-en-1-yl-4-d)thiazolo[4,5-c]pyridin-2-yl)-5'-methox y-6-methyl-[4,4'-bipyridine]-3-carboxamide] | 3.78 nM | 13.1 nM | IC50 [1, 3]: < 50 nM; IC50 (cells; [5]): < 100 nM
COc1cnc(Cl)cc1-c1cc(C)ncc1C(=O)Nc1nc2cnc(C3=CC[C@@H](O)CC3)cc2s1 [Example 115, (S) -2'-chloro-N-(6-(4-hydroxycyclohex-1-en-1-yl)thiazolo[4,5-c]pyridin-2-yl)-5'-methoxy-6-methyl-[4,4'-bipyridine]-3-c arboxamide] | 3.21 nM | 2.61 nM | IC50 [1, 3]: < 50 nM; IC50 (cells; [5]): < 100 nM
COc1cnc(Cl)cc1-c1cc(C)ncc1C(=O)Nc1nc2ccc(N3CCC(O)C(C)(C)C3)nc2s1 (centres unmarked) [Example 116, 2'-chloro-N-(5-(4-hydroxy-3,3-dimethylpiperidin-1-yl)thiazol[5,4-b]pyridin-2-yl)-5'-me thoxy-6-methyl-[4,4'-bipyridine]-3-carboxamide] | – | – | IC50 ([1]; Biochemical assay IC50 (nM)): 10.3 nM; IC50 (cells; read-out: Cell viability assay IC50 (nM)): 36.9 nM
COc1cnc(Cl)cc1-c1cc(C)ncc1C(=O)Nc1nc2ncc(N(C)CCC(C)O)cc2s1 (centres unmarked) [Example 117] | 7.28 nM | 799 nM | –
COc1cnc(Cl)cc1-c1cc(C)ncc1C(=O)Nc1nc2ncc(N3CCC(O)C(C)(C)C3)cc2s1 (centres unmarked) [Example 118] | 4.02 nM | 23 nM | –
COc1cnc(Cl)cc1-c1cc(C)ncc1C(=O)Nc1nc2cc(F)c(N3CCC(O)CC3)cc2s1 [Example 119] | 5.46 nM | 10.7 nM | –
COc1cnc(Cl)cc1-c1cc(C)ncc1C(=O)Nc1nc2c(C#N)cc(N3CCC(O)CC3)cc2s1 [Example 120] | 5.93 nM | 14.2 nM | –
COc1cnc(Cl)cc1-c1cc2cncn2cc1C(=O)Nc1nc2cnc(N3CCC(O)CC3)cc2s1 [Example 121] | 51.9 nM | 2510 nM | –
COc1cnc(Cl)cc1-c1cc(C(F)(F)F)ncc1C(=O)Nc1nc2ccc(N3CCC(O)CC3)nc2s1 [Example 122] | 145 nM | 2710 nM | –
COc1cnc(Cl)cc1-c1cc(C)ncc1C(=O)Nc1nc2c(F)nc(N3CCC(O)CC3)cc2s1 [Example 123] | 10.5 nM | 24.2 nM | –
COc1cnc(Cl)cc1-c1c(C(=O)Nc2nc3ccc(N4CCC(O)CC4)nc3s2)cnc(C)c1F [Example 124] | 163 nM | 584 nM | –
COc1cnc(Cl)c(F)c1-c1cc(C)ncc1C(=O)Nc1nc2cc(F)c(N3CCC(O)CC3)nc2s1 [Example 125] | 10 nM | 3.98 nM | –
COc1cnc(Cl)cc1-c1cc(C)ncc1C(=O)Nc1nc2cc(F)c(N3CCC(O)CC3)nc2s1 [Example 126] | 7.35 nM | 9.26 nM | –
COc1cnc(Cl)c(F)c1-c1cc(C)ncc1C(=O)Nc1nc2ncc(N3CCC(O)CC3)cc2s1 [Example 127] | 3.52 nM | 15.8 nM | –
COc1cnc(Cl)cc1-c1cc(C)ncc1C(=O)Nc1nc2ccc(N3CCC(CO)CC3)nc2s1 [Example 128] | 9.69 nM | 39.8 nM | –
COc1cnc(Cl)c(F)c1-c1cc(C)ncc1C(=O)Nc1nc2ccc(N3CCC(CO)CC3)nc2s1 [Example 129] | 8.06 nM | 9.68 nM | –
Cc1cc(-c2cc(Cl)ncc2OC(F)F)c(C(=O)Nc2nc3ccc(N4CCC(O)CC4)nc3s2)cn1 [Example 130] | 6.91 nM | 11 nM | –
COc1cnc(Cl)cc1-c1cc(C)ncc1C(=O)Nc1nc2ccc(N3CCc4ccccc43)nc2s1 [Example 131] | 149 nM | 736 nM | –
COc1cnc(Cl)cc1-c1cc(C)ncc1C(=O)Nc1nc2ccc(N3CCc4ccccc4C3)nc2s1 [Example 132] | 163 nM | 158 nM | –
COc1cnc(Cl)cc1-c1cc(C)ncc1C(=O)Nc1nc2ncc(N3CC4(CC(O)C4)C3)nc2s1 [Example 133] | 6.92 nM | 26.1 nM | –
COc1cnc(Cl)cc1-c1cc(C)ncc1C(=O)Nc1nc2ncc(N3CCC(C(C)(C)O)CC3)nc2s1 [Example 134] | 4.11 nM | 5.41 nM | –
COc1cnc(Cl)cc1-c1cc(C)ncc1C(=O)Nc1nc2ccc(N3CC[C@@H](O)C[C@H]3C)nc2s1 [Example 135] | 5.41 nM | 19.2 nM | –
COc1cnc(Cl)cc1-c1cc(C)ncc1C(=O)Nc1nc2ccc(N3CC[C@H](O)C[C@H]3C)nc2s1 [Example 136] | 25.8 nM | 121 nM | –
COc1cnc(Cl)cc1-c1cc(C)ncc1C(=O)Nc1nc2ccc(N3CCn4cncc4C3)nc2s1 [Example 137] | 25.1 nM | 171 nM | –
COc1cnc(Cl)cc1-c1cc(C)ncc1C(=O)Nc1nc2ccc(N3CCC=CC3=O)nc2s1 [Example 138] | 7.58 nM | 26.1 nM | –
COc1cnc(Cl)cc1-c1cc(C)ncc1C(=O)Nc1nc2ccc(N3CCn4ccnc4C3)nc2s1 [Example 139] | 19.1 nM | 121 nM | –
COc1cnc(Cl)cc1-c1cc(C)ncc1C(=O)Nc1nc2cnc(N3CC[C@@H](O)C[C@@H]3C)nc2s1 [Example 140] | 15.8 nM | 68.1 nM | –

Compound | IC50 [1, 2] | IC50 (cells; [4]) | further results
COc1cnc(Cl)cc1-c1cc(C)ncc1C(=O)Nc1nc2cnc(N3CC[C@@H](O)C[C@H]3C)nc2s1 [Example 141] | 8.23 nM | 21.5 nM | –
COc1cnc(Cl)cc1-c1cc(C)ncc1C(=O)Nc1nc2cnc(N3CC4(CC(O)C4)C3)nc2s1 [Example 142] | 4.49 nM | 104 nM | –
COc1cnc(Cl)c(F)c1-c1cc(C)ncc1C(=O)Nc1nc2cc(F)c(N3CCC(F)(F)CC3)nc2s1 [Example 143] | 23.6 nM | 43 nM | –
COc1cnc(Cl)cc1-c1cc(C)ncc1C(=O)Nc1nc2ncc(CN3CCC(O)CC3)cc2s1 [Example 144] | 36.7 nM | 2220 nM | –
COc1cnc(Cl)cc1-c1cc(C)ncc1C(=O)Nc1nc2ccc(-c3c(C)nnn3C)nc2s1 [Example 147, 2'-chloro-N-(5-(1,4-dimethyl-1H-1,2,3-triazol-5-yl)thiazolo[5,4-b]pyridin-2-yl)-5'-methoxy-6-methyl-[4,4'-bipyridine]-3-carboxamide] | 17.6 nM | 82.5 nM | –
COc1cnc(Cl)cc1-c1cc(C)ncc1C(=O)Nc1nc2ccc(-c3c(C)cnn3C)cc2s1 [Example 148] | 4.93 nM | 4.13 nM | –
[2H]C([2H])([2H])n1ncc(C)c1-c1cc2sc(NC(=O)c3cnc(C)cc3-c3cc(Cl)ncc3OC)nc2cn1 [Example 149] | 2.29 nM | 3.54 nM | –
COc1cnc(Cl)cc1-c1cc(C)ncc1C(=O)Nc1nc2cnc(-c3c(C)nn(C)c3C#N)cc2s1 [Example 150] | 5.58 nM | 21.5 nM | –
COc1cnc(Cl)cc1-c1cc(C)ncc1C(=O)Nc1nc2ccc(-c3c(C)cnn3C)c(F)c2s1 [Example 151] | 8.57 nM | 3.98 nM | –
COc1cnc(Cl)cc1-c1cc(C)ncc1C(=O)Nc1nc2cnc(-c3c(C)nn(C)c3C(N)=O)cc2s1 [Example 152] | 3.02 nM | 17.2 nM | –
COc1cc(P(C)(C)=O)ccc1-c1cc(C)ncc1C(=O)Nc1nc2cnc(-c3c(C)cnn3C)cc2s1 [Example 153] | 24.4 nM | 545 nM | –
COc1cnc(Cl)cc1-c1cc(C)ncc1C(=O)Nc1nc2cnc(-c3c(F)cnn3C)cc2s1 [Example 154] | 2.36 nM | 17.8 nM | –
[2H]C([2H])([2H])Oc1cnc(Cl)cc1-c1cc(C)ncc1C(=O)Nc1nc2cnc(-c3c(C)cnn3C)cc2s1 [Example 156] | 2.75 nM | 5.62 nM | –
COc1cnc(Cl)cc1-c1cc(C)ncc1C(=O)Nc1nc2cnc(-c3c(C)cnn3C)nc2s1 [Example 157] | 5.08 nM | 32.9 nM | –
COc1cnc(Cl)cc1-c1cc(C)ncc1C(=O)Nc1nc2cnc(-c3c(C)nn4ccccc34)cc2s1 [Example 158] | 6.31 nM | 4.64 nM | –
COc1cnc(Cl)cc1-c1cc(C)ncc1C(=O)Nc1nc2nnc(-c3c(C)cnn3C)cc2s1 [Example 159] | 2.75 nM | 1170 nM | –
COc1cnc(Cl)cc1-c1cc(C)ncc1C(=O)Nc1nc2ncc(-c3c(C)cnn3C)nc2s1 [Example 160] | 5.75 nM | 82.5 nM | –
COc1cnc(Cl)cc1-c1cc(C)ncc1C(=O)Nc1nc2cnc(-c3[nH]ncc3C)cc2s1 [Example 161] | 3.41 nM | 121 nM | –
COC(=O)c1cc(-c2c(C)cnn2C)cc2sc(NC(=O)c3cnc(C)cc3-c3cc(Cl)ncc3OC)nc12 [Example 162] | 63.1 nM | 233 nM | –
COc1cnc(Cl)cc1-c1cc(C)ncc1C(=O)Nc1nc2cnc(-c3c(C)nn(C)c3C)cc2s1 [Example 163] | 2.51 nM | 3.41 nM | –
COc1cnc(Cl)cc1-c1cc(C)ncc1C(=O)Nc1nc2c(C(N)=O)cc(-c3c(C)cnn3C)cc2s1 [Example 165] | 16.9 nM | 446 nM | –
COc1cnc(Cl)cc1-c1cc(C)ncc1C(=O)Nc1nc2c(C#N)cc(-c3c(C)cnn3C)cc2s1 [Example 166] | 25.1 nM | 68.1 nM | –
COc1cnc(Cl)cc1-c1cc(C)ncc1C(=O)Nc1nc2cnc(-c3c(Cl)cnn3C)cc2s1 [Example 167] | 3.74 nM | 5.41 nM | –
COc1cnc(Cl)cc1-c1cc(C)ncc1C(=O)Nc1nc2cnc(-c3c(C#N)cnn3C)cc2s1 [Example 169] | 8.84 nM | 89.1 nM | –
COc1cnc(Cl)cc1-c1cc(C)ncc1C(=O)Nc1nc2c(CO)cc(-c3c(C)cnn3C)cc2s1 [Example 170] | 7.13 nM | 825 nM | –
COc1cnc(Cl)cc1-c1cc(C)ncc1C(=O)Nc1nc2cnc(-c3cncn3C)cc2s1 [Example 171] | 4.93 nM | 13.1 nM | –

Source: patent EP4585599A1, “NITROGEN-CONTAINING FUSED RING COMPOUND, INTERMEDIATE THEREOF, PREPARATION METHOD THEREFOR AND USE THEREOF” (Hangzhou Synrx Therapeutics Biomedical Technology Co., Ltd., priority 2022, dated 2024)
